Laboratory results from ChEMBL document CHEMBL5338751, “Discovery of the First-in-Class Intestinal Restricted FXR and FABP1 Dual Modulator ZLY28 for the Treatment of Nonalcoholic Fatty Liver Disease” (J Med Chem, 2023).
Activity calls are given as the source filed them. No cut-off for these calls is given here.

How the values were obtained:
[1] = molecular target: G-protein coupled bile acid receptor 1 (Homo sapiens, UniProt Q8TDU6); assay: Activation of TGR5 (unknown origin) transfected in human NCI-H716 cells assessed as increase in cAMP production incubated for 24 hrs by HTR-FRET assay; assay type: functional, cell-based
[2] = molecular target: T1, Bile acid receptor (Homo sapiens, UniProt Q96RI1); assay: Agonist activity at FXR (unknown origin) expressed in human HepG2 cells co-transfected with human RXR assessed as luciferase activity incubated for 24 hrs by cell-based luciferase assay
T1 sequence (Q96RI1 whole entry): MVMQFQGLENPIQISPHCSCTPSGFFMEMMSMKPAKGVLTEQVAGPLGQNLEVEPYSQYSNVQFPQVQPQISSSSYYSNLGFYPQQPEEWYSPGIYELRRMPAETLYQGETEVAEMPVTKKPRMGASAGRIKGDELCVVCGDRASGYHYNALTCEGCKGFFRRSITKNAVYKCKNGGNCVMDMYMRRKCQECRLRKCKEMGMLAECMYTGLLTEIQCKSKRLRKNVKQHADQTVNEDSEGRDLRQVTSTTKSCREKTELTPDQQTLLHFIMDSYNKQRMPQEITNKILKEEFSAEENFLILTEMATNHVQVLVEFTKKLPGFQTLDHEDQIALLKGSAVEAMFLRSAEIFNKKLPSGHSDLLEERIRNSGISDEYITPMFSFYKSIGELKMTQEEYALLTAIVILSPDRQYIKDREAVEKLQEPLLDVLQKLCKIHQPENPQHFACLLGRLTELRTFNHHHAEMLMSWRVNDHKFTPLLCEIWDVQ

[3] = Metabolic stability in mouse liver microsomes assessed as parent compound remaining incubated for 1 hr by LC-MS analysis; assay type: ADME, Microsome; settings: read-out: Stability
[4] = molecular target: T2, Peroxisome proliferator-activated receptor gamma (Homo sapiens, UniProt P37231); assay: Agonist activity at PPARgamma (unknown origin) transfected in HEK293 cells incubated for 18 hrs by renilla/firefly based dual-glo luciferase assay; assay type: cell-based
T2 sequence (P37231 whole entry): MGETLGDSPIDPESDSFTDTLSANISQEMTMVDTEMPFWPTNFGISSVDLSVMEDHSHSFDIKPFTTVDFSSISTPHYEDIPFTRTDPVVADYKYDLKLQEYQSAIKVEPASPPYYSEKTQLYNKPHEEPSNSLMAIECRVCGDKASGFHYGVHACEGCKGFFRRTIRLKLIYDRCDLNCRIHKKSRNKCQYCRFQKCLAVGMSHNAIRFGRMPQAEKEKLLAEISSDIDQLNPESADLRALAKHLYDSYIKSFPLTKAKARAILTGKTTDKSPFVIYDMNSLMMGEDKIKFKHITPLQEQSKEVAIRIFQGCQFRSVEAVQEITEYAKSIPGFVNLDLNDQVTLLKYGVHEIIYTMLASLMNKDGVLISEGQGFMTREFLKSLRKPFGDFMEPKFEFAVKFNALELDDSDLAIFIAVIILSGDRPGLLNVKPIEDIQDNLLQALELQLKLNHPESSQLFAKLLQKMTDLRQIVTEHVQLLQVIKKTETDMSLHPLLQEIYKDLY

[5] = molecular target: Mineralocorticoid receptor (Homo sapiens, UniProt P08235); assay: Activation of Gal-DBD and NHRLBD fused MR (unknown origin) transfected in African green monkey CV-1 cells by luciferase reporter assay; assay type: cell-based
[6] = molecular target: Fatty acid-binding protein, heart (Homo sapiens, UniProt P05413); assay: Displacement of 8-anilino-1-naphthalene-sulfonic acid from FABP3 (unknown origin) incubated for 3 mins by fluorescence based assay
[7] = molecular target: T3, Bile acid receptor (Mus musculus) (UniProt Q60641); assay: Activation of FXR in C57BL/6 mouse ileum assessed as upregulation of FGF15 gene expression in ileum at 20 mg/kg, po administered for 5 days and measured after 1 hr post final dose by RT-PCR analysis; assay type: organism-based; settings: filed as activator, time 5.0 day
T3 sequence (whole entry): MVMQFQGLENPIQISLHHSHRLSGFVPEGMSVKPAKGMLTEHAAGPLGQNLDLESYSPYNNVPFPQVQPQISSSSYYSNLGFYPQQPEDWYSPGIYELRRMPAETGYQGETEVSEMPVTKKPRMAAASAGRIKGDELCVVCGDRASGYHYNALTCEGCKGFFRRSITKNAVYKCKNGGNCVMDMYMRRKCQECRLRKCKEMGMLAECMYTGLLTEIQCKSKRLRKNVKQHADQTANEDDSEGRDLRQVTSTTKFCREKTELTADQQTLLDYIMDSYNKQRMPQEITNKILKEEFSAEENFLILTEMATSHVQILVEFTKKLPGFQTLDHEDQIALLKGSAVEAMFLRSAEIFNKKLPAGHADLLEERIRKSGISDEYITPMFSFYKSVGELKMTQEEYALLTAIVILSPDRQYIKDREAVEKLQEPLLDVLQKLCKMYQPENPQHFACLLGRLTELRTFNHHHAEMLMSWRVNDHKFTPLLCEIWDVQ

[8] = system: Mus musculus; assay: Anti-NASH activity in western diet and CCl4-induced nonalcoholic steatohepatitis C57BL/6 mouse assessed as alleviation of lobular inflammation at 20 mg/kg, po administered for 12 weeks starting from week 8 and change in dose for every 5 days; assay type: functional, organism-based; settings: time 4.0 weeks
[9] = system: Mus musculus; assay: Anti-NASH activity in western diet and CCl4-induced nonalcoholic steatohepatitis C57BL/6 mouse assessed as reduction in MCP-1 level at 20 mg/kg, po administered for 12 weeks starting from week 8 and change in dose for every 5 days by ELISA; assay type: functional, organism-based; settings: time 4.0 weeks
[10] = system: Mus musculus; assay: Anti-NASH activity in western diet and CCl4-induced nonalcoholic steatohepatitis C57BL/6 mouse assessed as downregulation of IL-1beta expression level at 20 mg/kg, po administered for 12 weeks starting from week 8 and change in dose for every 5 days by ELISA; assay type: functional, organism-based; settings: time 4.0 weeks
[11] = system: Mus musculus; assay: Anti-NASH activity in western diet and CCl4-induced nonalcoholic steatohepatitis C57BL/6 mouse assessed as downregulation of IL6 expression level at 20 mg/kg, po administered for 12 weeks starting from week 8 and change in dose for every 5 days by ELISA; assay type: functional, organism-based; settings: time 4.0 weeks
[12] = molecular target: T3, Bile acid receptor (Mus musculus); assay: In vivo activation of FXR pathway in western diet and CCl4-induced nonalcoholic steatohepatitis C57BL/6 mouse model assessed as downregulation of CYP7A1 mRNA level in […] at 20 mg/kg, po administered for 12 weeks starting from week 8 and change in dose for every 5 days; assay type: functional, organism-based; settings: time 4.0 weeks
[13] = Subacute toxicity in ICR mouse assessed as abnormal behaviour at 500 mg/kg/day, po administered for 14 days; assay type: organism-based; settings: in vivo, 336 h, time 14 day
[14] = Subacute toxicity in ICR mouse assessed as changes in organ to body weight ratio at 500 mg/kg/day, po administered for 14 days; assay type: organism-based; settings: in vivo, 336 h, time 14 day
[15] = Subacute toxicity in ICR mouse assessed as changes in serum ALT level at 500 mg/kg/day, po administered for 14 days; assay type: organism-based; settings: in vivo, 336 h, time 14 day
[16] = Subacute toxicity in ICR mouse assessed as changes in serum DBIL level at 500 mg/kg/day, po administered for 14 days; assay type: organism-based; settings: in vivo, 336 h, time 14 day
[17] = Subacute toxicity in ICR mouse assessed as reduction in serum ALP level at 500 mg/kg/day, po administered for 14 days; assay type: organism-based; settings: in vivo, 336 h, time 14 day

Mineralocorticoid receptor, sequence (P08235 whole entry, the tested form may be a part): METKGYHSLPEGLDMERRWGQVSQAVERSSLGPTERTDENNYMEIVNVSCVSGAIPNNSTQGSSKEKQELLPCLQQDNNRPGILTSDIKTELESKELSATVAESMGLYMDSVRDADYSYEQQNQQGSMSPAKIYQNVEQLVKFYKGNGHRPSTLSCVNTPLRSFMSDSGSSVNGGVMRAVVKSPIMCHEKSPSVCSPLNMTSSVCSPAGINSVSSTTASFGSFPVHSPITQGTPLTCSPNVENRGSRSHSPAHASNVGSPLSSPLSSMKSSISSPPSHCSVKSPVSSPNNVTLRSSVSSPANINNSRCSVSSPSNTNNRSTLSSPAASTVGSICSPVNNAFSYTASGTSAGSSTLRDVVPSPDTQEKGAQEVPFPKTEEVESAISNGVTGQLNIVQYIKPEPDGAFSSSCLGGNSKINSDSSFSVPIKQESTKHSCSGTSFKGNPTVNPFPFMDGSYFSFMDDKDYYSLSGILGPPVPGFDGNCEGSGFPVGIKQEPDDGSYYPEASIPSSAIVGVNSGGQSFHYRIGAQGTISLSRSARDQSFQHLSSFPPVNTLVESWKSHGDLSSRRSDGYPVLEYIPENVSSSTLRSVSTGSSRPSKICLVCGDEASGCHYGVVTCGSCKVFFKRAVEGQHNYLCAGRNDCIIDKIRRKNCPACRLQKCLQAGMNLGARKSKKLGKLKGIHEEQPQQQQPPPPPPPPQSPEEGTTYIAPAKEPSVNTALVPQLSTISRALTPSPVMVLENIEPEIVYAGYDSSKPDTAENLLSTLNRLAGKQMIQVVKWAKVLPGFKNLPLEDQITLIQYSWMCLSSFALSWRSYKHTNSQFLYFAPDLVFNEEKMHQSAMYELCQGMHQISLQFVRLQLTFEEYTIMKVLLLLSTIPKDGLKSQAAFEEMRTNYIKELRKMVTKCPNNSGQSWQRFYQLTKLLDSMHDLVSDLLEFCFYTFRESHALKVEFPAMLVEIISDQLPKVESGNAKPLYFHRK
G-protein coupled bile acid receptor 1, sequence (Q8TDU6 whole entry): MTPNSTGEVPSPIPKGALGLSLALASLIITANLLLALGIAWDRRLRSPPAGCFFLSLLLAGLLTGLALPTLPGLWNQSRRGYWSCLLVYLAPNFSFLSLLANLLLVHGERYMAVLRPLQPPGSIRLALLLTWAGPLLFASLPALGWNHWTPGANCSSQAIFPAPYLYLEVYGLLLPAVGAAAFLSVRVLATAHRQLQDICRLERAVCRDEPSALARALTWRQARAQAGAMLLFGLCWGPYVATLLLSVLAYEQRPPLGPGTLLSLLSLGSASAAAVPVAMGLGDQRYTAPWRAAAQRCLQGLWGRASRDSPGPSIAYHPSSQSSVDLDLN
Fatty acid-binding protein, heart, sequence (P05413 whole entry): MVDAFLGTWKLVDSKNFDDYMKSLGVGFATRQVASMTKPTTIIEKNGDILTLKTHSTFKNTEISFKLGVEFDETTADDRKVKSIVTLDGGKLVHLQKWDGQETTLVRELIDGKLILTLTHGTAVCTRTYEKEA

O=C(O)C1(c2cccc(-c3ccc(OCc4c(-c5c(Cl)cccc5Cl)noc4C4CC4)cc3)c2)CC1
EC50 [1]: > 10 µM
EC50 [2]: 491 nM
remaining at 1 h [3]: 64.3%
EC50 [4]: > 10 µM
EC50 [5]: > 10 µM
IC50 [6]: > 30 µM
Activity [7]: Active
Activity [8]: Active
Activity [9]: Active
Activity [10]: Active
Activity [11]: Active
Activity [12]: Active
Activity [13]: Non-Toxic
Activity [14]: Non-Toxic
Activity [15]: Non-Toxic
Activity [16]: Non-Toxic
Activity [17]: Non-Toxic
